Assay results reported in US20130136772A1, “REGULATION OF IMMUNE RESPONSE BY COLOCYNTHIN AND/OR ITS DERIVATIVES” (priority 2010, published 2013).

Assays:
[1] = test system: leucocyte migration; assay: In vivo leucocyte migration (carrageenan induced pleurisy); design: species or system mice; details: 5 mg/kg p.o.
Experimental: Mice were injected with 0.2 ml of carrageenan (1% w/v) solution in sterilised normal saline into the pleural cavity by the modified method of Meacock and Kitchen, 1979 [Meacock S C R, Kitchen E A, (1979). Effect of non-steroidal antiinflammatory drug benoxaprofen on leukocyte migration. Journal of Pharmacy & Pharmacology; 31: 366-370]. The test drug was administered orally 1 h before and 6 h after the injection. After 24 h of carrageenan injection the pleural exudate was collected, volume measured and the total leucocyte count of the pleural fluid was determined (Table 3). Flowcytometry as a tool for evaluation of neutrophils is particularly useful because of their larger size than monocytes and lymphocytes when analysed on the forward scatter [FSc]. The percentage of these can be analysed by selectively ‘gating’ the neutrophils without physical separation of the cells (FIG. 4).

[2] = test system: humoral antibody response; assay: SRBC induced haemagglutination antibody titre (humoral immune response); format: in vivo, mice
Experimental: 200 μl of 5×10^9 SRBC/ml was used to immunize the animals on day 0. Animals were treated with graded doses of AD-B-63B i.e., 1, 2.5, 5 and 10mg/kg p.o. for next six consecutive days. Blood samples were collected on day 7 for antibody titre assay. Haemagglutination antibody titre was determined following the microtitration technique described by Nelson and Midenhall, 1967. The value of highest serum dilution causing visible Haemagglutination was taken as titre. BSA saline alone served as control (Table 7).

[3] = test system: cell mediated immune response (DTH); assay: SRBC induced delayed type hypersensitivity (DTH) response; format: in vivo, mice; details: 5 mg/kg p.o.
Experimental: Test material was administered 2 h after immunization of mice by 200 μl of 5×10^9 SRBCs/ml. On 7th day, the thickness of the left hind foot was measured with spheromicrometer (0.01 mm pitch) and was considered as control. These mice were then challenged by injecting the 20 μl of 5×10^9 SRBCs/ml intradermally into the left hind footpad. The footpad thickness was measured again at 24 h after challenge (Doherty, 1981).

[4] = test system: skin allograft rejection; assay: Skin allograft rejection time; format: in vivo, mice; details: for GRAFT REJECTION (Percent), delayed: 5 mg/kg p.o.
Experimental: The modified method of Billingham and Medawar (1951) [[…]] was followed to study the skin allograft rejection time in mice. Graded doses of test material AD-B-63B were administered to the animals for 7 days and graft rejection time (GRT) was recorded by daily observation of epithelial skin layer survival. […] The basic mechanism involved in increase in graft rejection time is the suppression of T lymphocytes. After transplantation, MHC peptide complexes of the foreign organ are recognized by CD4+ and CD8+ T cells of the recipient as non-self antigens. These T cells differentiate into effector T cells and stimulate an immune response. After T cells differentiate and migrate to the site, macrophages and other inflammatory agents are mediated to the site. Cytotoxic T cells (CD8+) lyse the endothelial cells on the graft, CD4+ Th1 activate macrophages and CD4+ Th2 aid in antibody production.

[5] = test system: peritoneal murine macrophages; assay: Phagocytosis of heat killed Candida albicans by murine macrophages (in vitro); format: cell-based; details: 5 μg/ml
Experimental: The method of Lehrer (1981) [Lehrer, R. I. Ingestion and destruction of Candida albicans. (1981) In: Methods for studying mono-nuclear phagocytes. Eds. Adams, D. O., Edelson, P. J. and Koren, H. (Academic Press, New York) 693-7081 was followed. The percentage and average number of Candida albicans cells (heatkilled) ingested by peritoneal murine macrophages was calculated. AD-B-63B was tested at the doses of 1, 2.5, Sand 10 μg/mL (Table 4).

[6] = test system: TNF-α; assay: Intracellular TNF-α estimation in LPS activated murine neutrophils by flowcytometry; format: cell-based; details: 100 μg/ml
Experimental: Flowcytometric studies were carried out to determine the anti-inflammatory effect of AD-B-63B on TNF-α cytokine expression in LPS activated murine neutrophils. Neutrophils play essential roles in host defence through their ability to clear bacterial infections. Their inappropriate activation contributes to a variety of inflammatory diseases, from the acute respiratory distress syndrome to asthma, chronic obstructive pulmonary disease and rheumatoid arthritis. TNF-α was chosen as the target for anti-inflammatory activity because of the fact that it is a pro-inflammatory cytokine and plays a major role in the pathogenesis of septic shock induced by LPS (Lipopolysaccharide) endotoxin injection [Remick, D. G.; Strieter, R. M.; Eskandari, M. K.; Nguyen, D. T.; Genord, M. A.; Raiford, C. L. Am. J. Path. 1990, 136, 49.]. LPS is an important triggering factor for in vivo systemic inflammatory response [Bone, R. C. Chest 1991, 100, 802]. LPS activates neutrophils via engagement of TLR4 (Toll-like receptor 4),[Sabroe, I.; Read, R. C.; Whyte, M. K. B.; Dockrell, D. H.; Vogel, S. N.; Dower, S. K. J. Immunol. 2003, 171, 1630.] resulting in the induction of a characteristic pro-inflammatory phenotype and prolongation of cell lifespan [Lee, A.; Whyte, M. K. B.; Haslett, C. J. Leukoc. Biol. 1993, 54, 283].
The anti-inflammatory activity of AD-B-63B was measured by the estimation of intracellular tumor necrosis factor alpha (TNF-α) expression in a gated population of neutrophils [Clara, B., R. C. Arancha, G. M. Andre's, P. Atanasio, A. Julia, and O. Alberto. 2003. A new method for detecting TNF-α-secreting cells using direct immunofluorescence surface membrane stainings. J. Immuno. Methods 264:77-87.]. Murine blood was subjected to centrifugation at 250× g for 20 min. Three layers were formed: an upper layer of platelet-rich plasma, a buffy coat middle layer and a lower layer formed of red blood cells. The middle layer was removed and subjected to Histopaque 1077 (Sigma) gradient separation. The upper layer containing neutrophils was removed and transferred to FACS tubes (Becton Dickinson). Lipopolysaccharide (LPS) derived from Escherichia coli (Sigma) was added at a concentration of 10 ng/ml for the stimulation of the cells. AD-B-63B was added at graded concentrations of 0.5, 1, 2.5, 5, 10 and 20 μg/ml. Samples were incubated for 3 h at 37° C. ( Table 1) Controls consisted of LPS-stimulated cells (LPS control). Further processing was done by the addition of FACS permeabilizing solution (Becton Dickinson), followed by the addition of phycoerythrin (PE)-labeled anti-mouse TNF-α. (Becton Dickinson). The cells were incubated in the dark, and after being washed with sterile PBS, samples were resuspended in PBS (pH 7.4) and acquired directly on the flow cytometer (FACS CANTO; Becton Dickinson). A fluorescence trigger was set on the […] parameter of the gated neutrophil populations (10,000 events). Rolipram at 100 μg/ml was used as standard inhibitor of TNF-α in this study. Fluorescence compensation, data analysis and data presentation were performed using software (Becton Dickinson) (FIG. 1) [Pandey A, Bani S, Kaul S, Sangawan P L; 2010, Selective Th1 upregulation by ethyl acetate fraction of Labisia pumila; 132 (2010) 309-315].

[7] = test system: Interleukin-1beta (IL-1β); assay: Extracellular IL-1β in LPS stimulated murine neutrophils (ELISA, in vitro); format: cell-based; details: 100 μg/ml
Experimental: Neutrophils were separated from whole blood by Histopaque gradient method (Histopaque-No. 1077). Cell count was adjusted to approximately 10^5/[…]. Lipopolysaccharide, at the concentration of 10 ng/ml was used as stimulus in in-vitro studies. […] Extracellular IL-1β was estimated through ELISA (Table 2) [Weir, R. E., Morgan, A. R., Britton, W. J., Butlin, C. R., Dockrell, H. M., 1994. Development of a whole blood assay to measure T cell responses to leprosy: a new tool for immuno-epidemiological fields studies of leprosy immunity. J. Immunol. Methods. 176, 93; Hussain, R., Kaleem, A., Shahid, F., Dojki, M., Jamil, B., Mehmood, H., Dawood, G., Dockrell, H., 2002. Cytokine profiles using whole blood assays can discriminate between tuberculosis patients and healthy endemic controls in a BCG-vaccinated population. J. Immunol. Methods. 264, 95-108]

## C[C@]12C=CC(=O)C=C1CC[C@@H]1[C@@H]2[C@@H](O)C[C@@]2(C)[C@H]1CC[C@]2(O)C(=O)CO [Prednisolone, reference compound]
[1]
  % inhibition of exudate volume: (47.27%↓)
  % inhibition of total leucocyte count: (33.23%↓)
[1]; 1 h before and 6 h after carrageenan, pleural exudate at 24 h
  EXUDATE VOLUME Mean ± S.E.: 0.58 ± 0.28 mL
[2]; 5 mg/kg p.o.
  % ACTIVITY (decrease in antibody titre): 35.22↓ %
[2]; 5 mg/kg p.o. for six days, blood on day 7
  ANTIBODY TITRE MEAN ± S.E: 3.99 ± 0.22
[3]
  PERCENT INHIBITION (DTH response): 35.86↓ %
[3]; 24 h after SRBC challenge
  FOOT PAD THICKNESS Mean ± SE: 0.59 ± 0.05 mm
[4]
  GRAFT REJECTION (Percent), delayed: 39.69%
[4]; 5 mg/kg p.o. for 7 days
  REJECTION TIME Mean ± S.E.: 18.16 ± 0.16 days
[4]; listed as PREDNISOLONE
  GRAFT REJECTION (Percent), delayed: 39.69↓ %
[5]
  % phagocytosis [in vitro study] Mean ± S.E.: 15.99 ± 2.17%
  percent decrease in phagocytosis: 40.35%
[5]; listed as PREDNISOLONE
  percent decrease in phagocytosis: (40.35%↓)

## COc1ccc(C2CNC(=O)C2)cc1OC1CCCC1 (centres unmarked) [Rolipram, reference compound]
[6]; LPS 10 ng/ml, 3 h
  Expression of intracellular TNF-alpha, Mean ± S.E: 0.74 ± 0.04
[6]; Mus musculus, Neutrophil, read-out: % TNF-alpha inhibition against LPS control
  inhibition at 100 µg/mL: 72.5%
[7]
  % activity IL-1β expression against LPS control (decrease): 52.85↓ %
[7]; LPS 10 ng/ml, 4 hr
  Concentration of IL-1β produced Mean ± S.E.: 63.52 ± 2.07 pg/mL
